Tests used:
[1] = cited from earlier work
[2] = 37° C.; cited from earlier work
[3] = system: atherosclerotic plaques; assay: In vivo pharmacodynamic evaluation in atherosclerosis model (ORO, H&E, Masson staining); set-up: species or system ApoE-/- mice; conditions: p.o., 4 mg/kg once a day, 12 weeks, Model group 51.53%
Description: AS model mice and initial treatment plan: ApoE^-/- mice were fed a high-fat diet for 12 weeks and then randomly divided into 5 groups: Model group (normal saline group); Crude Til group (p.o., 4 mg/kg); Til NCs group (p.o., 4 mg/kg); Lipo@Til NCs group (p.o., 4 mg/kg); FA-Lipo@Til NCs group in Example 3 (p.o., 4 mg/kg). The Control group was replaced by C57BL/6J mice fed with ordinary diet in the same cycle. The drug was administered orally once a day for 12 consecutive weeks, ApoE--mice continued to eat a high-fat diet throughout the treatment, and body weight changes were recorded 2 times a week. After 12 weeks of continuous administration, the mice were fasted but allowed to drink water 12 h before the experiment. Their eyeballs were removed to collect whole blood serum, and then the mice were dissected, their heart was exposed, and a small incision was made in the right atrium, and the whole body was perfused with pre-cooled saline until the outflowing fluid became clear. […]
ORO staining of the entire aorta: fat tissue stained bright red by ORO could interfere with the observation of plaques, such that the fat tissue around the blood vessels needed to be removed with fine forceps under a stereomicroscope. […] After photographing, the images were measured using ImageJ, and the percentage of plaques in the intima area was calculated to correct for differences in body size. […]

[4] = system: Caco-2 cell monolayer; assay: Caco-2 cell monolayer transport; format: in vitro ADME; conditions: Til by HPLC on basolateral side, 50 μg to 100 μg Til
Description: The FA-Lipo@Til NCs obtained in Example 3 were tested using a Caco-2 cell culture monolayer model, Caco-2 cells were collected with a cell plating density of 1×10^5 […]. Cells were inoculated on the upper layer of the Transwell plate, 500 μL of diluted cell suspension was added to each well, and 600 μL of blank MEM medium was added to the lower layer, and the plates were placed in an incubator for culture; after 21 days of continuous culture, appropriate cell wells were selected, the upper and lower layers of the Transwell plate were replaced with HBSS balancing solution, and the plates were balanced in the incubator for 30 min. After removing the buffer, different concentrations of FA-Lipo@Til NCs (all diluted to 300 μL with HBSS containing 10% FBS) were added into the well, 100 μL of sample was taken from the lower layer of the Transwell plate at a specific time point, and an equal amount of HBSS buffer was supplemented, and the samples collected at different time points were used to detect the content of Til by HPLC. The cumulative release amount and Papp of the preparation were calculated. […] The transport amount of raw material Til through the monolayer was the lowest, while Til NCs were transported to the basolateral side over time, which was about 3 times that of the former at 4 h. […] FA ligands enhanced the internalization and transport of nanoparticles.

[5] = Dissolution behavior, dialysis diffusion method; format: physicochemical; conditions: 37° C., dialysis bag 3,500 D, 4 h
Description: The dissolution behavior of FA-Lipo@Til NCs in Example 3 was measured in different media (water, SGF, and SIF) at 37° C. using the dialysis diffusion method. 1 mL of Til raw material and Til NC preparation (containing 1 mg/mL of Til) were placed in a dialysis bag with a molecular weight cut-off of 3,500 D, which was then placed in 50 mL of dissolution medium and then placed in an oscillator with a frequency of 100 rpm at 37° C. Samples were taken at 1 min, 2 min, 3 min, 5 min, 10 min, 15 min, 30 min, 45 min, 60 min, 90 min, 120 min, 180 min, and 240 min, respectively. After taking the samples, the corresponding volume of medium was supplemented, and the samples were centrifuged (12,000 rpm, 10 min) and determined by HPLC. […] FA-Lipo@Til NCs were released more slowly than Til NCs. At 4 h, approximately 45% (in SGF) and 35% (in SIF) of Til in Lipo@Til NCs and FA-Lipo@Til NCs were released, while the cumulative release from Til NCs exceeded 55% (in SGF) and 65% (in SIF) within 4 h.

acacetin-7-glucoside [Til]
absolute oral bioavailability [1]: 1.350±0.710% | solubility in aqueous media [2]: 1.57 µg/mL | average plaque area of the aorta (ORO staining) [3]: reduced | transport through the Caco-2 cell monolayer [4]: lowest | cumulative release of Til in SGF ([5]; SGF): about 4% | cumulative release of Til in SIF ([5]; SIF): about 4%
